The test system of test [1] is Dengue virus. Put plainly: Antiviral activity against Dengue virus assessed as inhibition of viral replication. The format is functional, organism-based.
Test [2] deals with T1, Genome polyprotein (West Nile virus, UniProt P06935). Nature of the test: Non-competitive inhibition of West Nile virus NS2B-NS3 protease.
In test [3] the target is Genome polyprotein (dengue virus type 2, UniProt P12823). Put plainly: Inhibition of dengue virus-2 NS2B-NS3 protease.
Test [4] addresses T2, Genome polyprotein (dengue virus type 2, UniProt Q91H74). Put plainly: Inhibition of dengue virus NS2B-NS3 protease.
Test [5] deals with T1, Genome polyprotein. Nature of the test: Inhibition of West Nile virus NS2B-NS3 protease.
In test [6] the target is T2, Genome polyprotein. Nature of the test: Inhibition of dengue virus-3 NS2B-NS3 protease. The arrangement: species or system dengue virus type 3.
Test [7] deals with T2, Genome polyprotein. Nature of the test: Inhibition of dengue virus-1 NS2B-NS3 protease. More on the design: species or system dengue virus type 1.
The target in test [8] is T2, Genome polyprotein. Put plainly: Inhibition of dengue virus-4 NS2B-NS3 protease. The arrangement: species or system dengue virus type 4.
A further test has as its system Chikungunya virus. Put plainly: Antiviral activity against Chikungunya virus assessed as inhibition of viral replication. Type of test: functional.
The subject of a further test is dengue virus type 3. Nature of the test: Antiviral activity against Dengue virus 3. The format is functional, organism-based.
The next test concerns dengue virus type 1. Put plainly: Antiviral activity against Dengue virus 1. The format is functional, organism-based.
The subject of another test is dengue virus type 2. Nature of the test: Antiviral activity against Dengue virus 2. The format is functional, organism-based.
For the next test, the system named is dengue virus type 4. Put plainly: Antiviral activity against Dengue virus 4. Type of test: functional, organism-based.
In test [9] the test system is Dengue virus. Nature of the test: Antiviral activity against Dengue virus assessed as inhibition of viral RNA replication. The format is functional, organism-based.
Test [10] in a line: Inhibition of Dengue virus RNA-directed RNA polymerase NS5.
The subject of test [11] is Dengue virus. Nature of the test: Antiviral activity against Dengue virus. The format is functional, organism-based.
The nature of test [12]: Inhibition of Dengue virus-3 2'-O-methyltransferase. More on the design: species or system dengue virus type 3.
Test [13] can be described thus: Inhibition of Dengue virus-3 N7-methyltransferase. More on the design: species or system dengue virus type 3.

Peptide text beside a SMILES is read from it. * marks the point of attachment. Bz = O=C(c1ccccc1)*

On to `C=C(C)[C@@H]1CC[C@]2(C(=O)O)CC[C@]3(C)[C@H](CC[C@@H]4[C@@]5(C)CC[C@H](O)C(C)(C)[C@@H]5CC[C@]43C)[C@@H]12` [BETULINIC ACID], for which, in the test on Dengue virus [1], the IC50 is 1700 nM. Consider `CCCSc1nnc(N2C(=O)C(O)=C(C(=O)c3ccc(Cl)cc3)C2c2ccc(Cl)cc2)s1` (stereo not drawn), for which, on Genome polyprotein [2], the IC50 was determined as 2.2 µM.

In the case of `N#Cc1ccc(OC(=O)c2ccc(NC(=N)N)cc2)cc1`, at Genome polyprotein [3], the IC50 was found to be 37.9 µM and the affinity, expressed as Ki, was 31.1 µM. At Genome polyprotein [4], `Cc1cc(C)c2c(c1)OC(c1ccc(N(C)C)cc1)CC2=O` (stereo not drawn) showed an IC50 of 121 µM. The molecule `O=c1cc(-c2ccccc2)oc2ccc(-c3cn[nH]n3)cc12` yielded an IC50 at Genome polyprotein [4] of 69 µM.

`Oc1c(C(Nc2nccs2)c2cccc(OCc3ccccc3)c2)ccc2cccnc12` (stereo not drawn): half-maximal inhibition on Genome polyprotein [5] (IC50) required 2010 nM. Take `N=C(N)Nc1ccc(O[C@H]2C[C@@H](Oc3ccc(NC(=N)N)cc3NC(=N)N)[C@H](NC(=N)N)C[C@@H]2NC(=N)N)c(NC(=N)N)c1`: the IC50 on Genome polyprotein [6] was 1000 nM; at Genome polyprotein [7], 1000 nM; on Genome polyprotein [3], 1 µM; on Genome polyprotein [8], 1000 nM.

Regarding `COc1cc2c(cc1OC)-c1cc3ccc(OC)c(OC)c3c[n+]1CC2` [PALMITINE], at Genome polyprotein [2], the IC50 turned out to be 96 µM.

As to `Cc1ccc2c(c1)-c1c(=O)nc(SCc3ccccc3)[nH][n+]1C(c1ccc(Cl)cc1)N2` (stereo not drawn), the IC50 on Genome polyprotein [2] is 5.41 µM. `CCOc1ccc(/C=N/NC(=O)/C=C/c2ccc(C(C)(C)C)cc2)cc1OCC`: the IC50 in the test on Chikungunya virus is 3.2 µM. In the case of `O=c1c(OC2O[C@H](CO)[C@@H](O)[C@H](O)[C@H]2O)c(-c2ccc(OC3O[C@H](CO)[C@@H](O)[C@H](O)[C@H]3O)c(O)c2)oc2cc(O)cc(O)c12` (stereo partly drawn), the IC50 with Dengue virus [1] was 1700 nM. For `O=C1c2c(O)ccc([N+](=O)[O-])c2C(=O)c2c([N+](=O)[O-])ccc(O)c21`, the EC50 with dengue virus type 3 worked out at 3080 nM; with dengue virus type 1, 5.96 µM; in the test on dengue virus type 2, 440 nM; in the test on dengue virus type 4, 880 nM. Regarding `Cc1nc(Nc2ncc(C(=O)Nc3c(C)cccc3Cl)s2)cc(N2CCN(CCO)CC2)n1` [DASATINIB], the EC50 in the test with Dengue virus [9] turned out to be 110 nM. In the case of `O=c1cc(-c2ccc(Oc3c(O)cc4occ(-c5ccc(O)cc5)c(=O)c4c3O)cc2)oc2cc(O)cc(O)c12`, in [10], the IC50 was found to be 260 nM. For `NC(=O)c1ncn([C@@H]2O[C@H](CO)[C@@H](O)[C@H]2O)n1` [RIBAVIRIN], it took 49 µM to reach a half-maximal effect with Dengue virus [11] (EC50).

As to `NC(CCSC[C@H]1O[C@@H](n2ccc3c(NCc4cccc(Cl)c4)ncnc32)C(O)C1O)C(=O)O` (stereo partly drawn), the Ki turned out to be 170 nM in test [12] and 820 nM in test [13].

As for `COc1ccc(-c2coc3c(-c4cc(-c5cc(=O)c6c(O)cc(O)cc6o5)ccc4O)c(O)cc(O)c3c2=O)cc1`, the IC50 in test [10] is 750 nM. On to `O=c1c(O[C@@H]2O[C@H](CO)[C@H](O)[C@H](O)[C@H]2O)c(-c2ccc(O)c(O)c2)oc2cc(O)cc(O)c12` [HYPEROSIDE], for which, in the test on Dengue virus [1], the IC50 is 1700 nM. On to `CN1CCN(CCOc2cc(OC3CCOCC3)c3c(Nc4c(Cl)ccc5c4OCO5)ncnc3c2)CC1` [SARACATINIB], for which the EC50 in the test with Dengue virus [9] is 1600 nM. Turning to `C[C@@H]1O[C@@H](Oc2c(-c3ccc(O)c(O)c3)oc3cc(O)cc(O)c3c2=O)[C@H](O)[C@H](O)[C@H]1O` [QUERCITRIN], in the test on Dengue virus [1], the IC50 was found to be 1700 nM. On Genome polyprotein [3], `N=C(N)Nc1ccc(OC(=O)c2ccc(NC(=N)N)cc2)cc1` had an IC50 of 7.7 µM and a Ki of 2 µM. Turning to `O=c1c(O[C@@H]2O[C@@H](CO)[C@H](O)[C@H]2O)c(-c2ccc(O)c(O)c2)oc2cc(O)cc(O)c12` [AVICULARIN], the IC50 in the test on Dengue virus [1] turned out to be 1700 nM. On to `N=C(N)NCCC[C@H](NC(=O)[C@H](CCCCN)NC(=O)[C@H](CCCCN)NC(=O)C1CC1)C(=O)O`, for which the midpoint of inhibition at Genome polyprotein [5], the IC50, lay at 380 nM. For `C[C@@H]1O[C@@H](OC[C@H]2O[C@@H](Oc3c(-c4ccc(O)c(O)c4)oc4cc(O)cc(O)c4c3=O)[C@H](O)[C@@H](O)[C@@H]2O)[C@H](O)[C@H](O)[C@H]1O` [RUTIN], the IC50 with Dengue virus [1] came to 1700 nM. In turn, `Cc1ccc(C(NN=C(N)N)[PH](=O)O)cc1` (stereo not drawn) had a half-inhibitory concentration (IC50) against Genome polyprotein [4] of 14 µM. For the molecule `CCc1ccc(NC(=O)CSc2nc3ccc(NC(=O)CSc4nnc(-c5ccccc5)n4C)cc3s2)cc1`, the IC50 against Genome polyprotein [5] is 3400 nM. `N=C(N)N[C@H]1CC[C@H](CNC(=O)[C@H](CCCCN)NC(=O)[C@H](CCCCN)NC(=O)Cc2ccc(Cl)c(Cl)c2)CC1` came in with a Ki at Genome polyprotein [5] of 130 nM.

`N=C(N)NCCC[C@H](NC(=O)[C@H](CCCCN)NC(=O)[C@H](CCCCN)NC(=O)c1ccccc1)C(=O)O` (Bz-Lys-Lys-Arg-OH) registered an IC50 on Genome polyprotein [5] of 420 nM. For the molecule `NC(=O)[C@H](Cc1c[nH]c2ccccc12)NC(=O)[C@H](CS)NC(=O)[C@H](Cc1ccc(O)cc1)NC(=O)[C@@H](N)Cc1c[nH]c2ccccc12` (H-WYCW-NH2), the Ki on Genome polyprotein [6] stood at 24.4 µM; on Genome polyprotein [7] it was 4.2 µM; at Genome polyprotein [3] it was 4.8 µM; at Genome polyprotein [8] it was 11.2 µM. The molecule `COc1ccc(-c2nnc(C(Cc3ccccc3)n3sc4ccccc4c3=O)o2)cc1` (stereo not drawn) had an IC50 at Genome polyprotein [4] of 3.75 µM.

For `CC(C)C[C@@H]1NC(=O)[C@H](CCCN)NC(=O)[C@H](C(C)C)NC(=O)[C@H](Cc2ccc(O)cc2)N[C@@H](CCC(=O)O)C(=O)N[C@@H](CC(N)=O)C(=O)[C@@H](Cc2ccccc2)NC(=O)[C@H](Cc2ccccc2)NC(=O)[C@@H]2CCCN2C(=O)[C@@H](Cc2ccccc2)NC1=O`, affinity at Genome polyprotein [5] was put at a Ki of 2000 nM. Take `Cc1ccc(S(=O)(=O)Nc2cc(SCC(=O)O)c(O)c3ccccc23)cc1[N+](=O)[O-]`: the EC50 amounted to 2430 nM in the test with dengue virus type 3, 0.97 µM in the test on dengue virus type 1, 980 nM in the test on dengue virus type 2 and 740 nM in the test with dengue virus type 4. `O=c1c(O)c(-c2ccc(O[C@@H]3O[C@H](CO)[C@@H](O)[C@H](O)[C@H]3O)c(O)c2)oc2cc(O)cc(O)c12` [SPIRAEOSIDE]: the IC50 in the test with Dengue virus [1] came to 1700 nM.

Values taken from ChEMBL document CHEMBL3352310, “A perspective on targeting non-structural proteins to combat neglected tropical diseases: Dengue, West Nile and Chikungunya viruses” (Eur J Med Chem, 2014).
